This is an account of results in patent US20250197837A1, “SERINE PROTEASE FOR SELECTIVELY DEGRADING MUCINS AND USE THEREOF” (priority 2022, published 2025).

In series [1] the test system is miscellaneous protein derived from the patient's abdominal cavity. The series can be described thus: Example 4: specificity, SDS-PAGE of miscellaneous proteins in homogenized patient mucins. The series is classed as biochemical, human. The conditions noted are these: 2-10 ug protease, 100 μL homogenized mucins, 200 uL, 6 h. As for the experimental part: Untreated mucins derived from clinical patients were briefly cleared to remove cellular tissue. 0.20 g of the above-mentioned mucins was accurately weighed and placed in 1 mL of PBS solution, 3-4 magnetic beads with a diameter of 1 mm were added, and then a resulting mixture was frozen and shaken at −30° C. for homogenization, so as to destroy the gel-like morphology of mucins, and release the miscellaneous protein from patients with mixed gel-like mucins. 100 μL of the homogenized mucins solution was added with 2-10 ug of protease (bromelain or serine protease EatA), respectively, and the reaction was performed in a 200 uL reaction system. After 6 h of reaction, samples were respectively taken for SDS-PAGE detection, and the total protein after fragmentation, which was the patient-derived miscellaneous protein in the abdominal cavity/abdominal mucins of the patient, was analyzed.

Series [2] concerns human patient-derived gel-like mucins. The series can be described thus: Example 5: in vivo degradation of gel-like mucins embedded in mouse abdominal cavity. More on the design: species or system C57 male mice. The following applies: 80 ug injected 24 h after embedding 0.30 g mucins, sacrificed after 48 h. On the procedure: The experiment included twenty C57 male mice aged 6-8 weeks. Five groups were set up in the experiment, including an experimental group (mucus+EatA, 5 mice), a control group (mucus+PBS, 5 mice), a bromelain group (mucus+bromelain, 5 mice), a negative sham operation group (minimal invasive open operation performed without adding mucins and enzyme, 3 mice), and a reference group (minimal invasive open operation performed with adding EatA protease, 2 mice). […] After 48 h, the mice were sacrificed, laparotomy was performed (results of abdominal examination after laparotomy were shown in FIG. 9) and the whole amount of gel-like mucins in the mice were removed, weighed using the method described in Example 2, counted and compared with the final amount of gel-like mucins remaining in three groups (experimental group (mucus+EatA), control group without enzyme (mucus+PBS) and bromelain group (mucus+bromelain)) to which gel-like mucins was added as a substrate, and results were shown in FIG. 8.

For series [3], the system named is gel-like mucins. The series can be described thus: Example 2: mass loss of gel-like mucins, EatA versus bromelain. The series is classed as biochemical, human. The conditions noted are these: 0.10 g mucins, 500 uL PBS, 37° C., 6 h. From the text: (§1) Since mucins of different origins and mucins associated with the mucus-related disease have different expression patterns and post-translational modifications, different mucins of clinical pathological origin and mixtures thereof are used in the present application. Preferably, mucins of clinical peritoneal pseudomyxoma origin are used. In the present application, firstly, gel-like mucins from the abdominal cavity of patients with clinical peritoneal pseudomyxoma are collected, after protein precipitation with 30% to 100% ammonium sulfate, cells and tissue fragments, adipose tissue that possibly doped in the collection process of mucins are selected and removed, and then dialyzed and filtered through a 100 KDa dialysis bag. Through the use of sulfate detection test paper, the sulfate concentration in the dialysate and the inner side of the dialysis bag is confirmed. When the sulfate concentration is less than 200 mg/L, the dialysis is terminated and gel-like mucins can be seen. This sample is collected and used as the substrate for in vitro tests to examine the degradation ability of serine protease EatA on mucins. Some examples used mucins removed from the abdominal cavity of clinical patients without purification. […]

Series [4] concerns mucins after mucus formation. The conditions noted are these: background statement; cited from earlier work.
The target in series [5] is mucus from mucinous ovarian cancer (clinical source).
Series [6] deals with mucus from mucinous appendiceal adenocarcinoma (clinical source).
In series [7] the target is gel-like mucins from the abdominal cavity of patients with clinical peritoneal pseudomyxoma.
The test system of series [8] is gel-like mucins from the abdominal cavity of patients with clinical peritoneal pseudomyxoma. The series can be described thus: Example 1: degradation of gel-like mucins by EatA, visual/pipette observation. The series is classed as biochemical, human. The conditions noted are these: about 80 μg enzyme, 0.30 g mucins, 500 ul, 37° C., 3 h.
From the text: as §1

Series [9] relates to mucinous ovarian cancer (MOC) mucus. Nature of the series: Example 6: viscosity of mucinous ovarian cancer mucus after incubation (rheometer). The series is classed as biochemical, human. The following applies: 50 μg enzyme, 0.50 mL mucus, 750 uL, 37° C., 600 rpm, 20 h; control about 2000 mPa s. As for the experimental part: (§2) This example carried out a degradation experiment on mucus from mucinous ovarian cancer and mucinous appendiceal adenocarcinoma using the serine protease EatA. 0.50 mL of the above-mentioned two new types of mucinous carcinoma mucus from clinical sources were weighed directly into test tubes, 50 μg of EatA serine protease dissolved in 0.25 mL of PBS buffer was added and then incubated in a total 750 uL reaction system at 37° C., 600 rpm for 20 h. For each type of mucinous carcinoma mucus sample, a control group was set up with only the addition of an equal volume of PBS, for a total of four experiments, each set up with three replicates. The viscosity of the incubated experimental samples was measured under an Anton Paar rheometer, probe model pp25, sample spacing 0.45 mm. After each sample was subjected to pre-shearing at a shearing frequency of 5 rad/s for 20 s, a total of 36 sample point data was obtained for each group of experiments by reading a total of 12 data at a shearing frequency of 10 rad/s every 5 s period for 60 s.

Series [10] concerns mucinous appendiceal adenocarcinoma (MAA) mucus. Nature of the series: Example 6: viscosity and appearance of mucinous appendiceal adenocarcinoma mucus after incubation. It counts as biochemical, human. The conditions noted are these: 50 μg enzyme, 20 h. As for the experimental part: as §2
The test system of series [11] is gelatin, lactoferrin and CD43, BSA and BSM. The conditions noted are these: previous studies; cited from earlier work.
For series [12], the system named is gel-like mucins. Nature of the series: Example 3: temperature, pH and time dependence of mucin degradation. It counts as biochemical, human. From the text: Since mucins of different origins and mucins associated with the mucus-related disease have different expression patterns and post-translational modifications, different mucins of clinical pathological origin and mixtures thereof are used in the present application. Preferably, mucins of clinical peritoneal pseudomyxoma origin are used. In the present application, firstly, gel-like mucins from the abdominal cavity of patients with clinical peritoneal pseudomyxoma are collected, after protein precipitation with 30% to 100% ammonium sulfate, cells and tissue fragments, adipose tissue that possibly doped in the collection process of mucins are selected and removed, and then dialyzed and filtered through a 100 KDa dialysis bag. Through the use of sulfate detection test paper, the sulfate concentration in the dialysate and the inner side of the dialysis bag is confirmed. When the sulfate concentration is less than 200 mg/L, the dialysis is terminated and gel-like mucins can be seen. This sample is collected and used as the substrate for in vitro tests to examine the degradation ability of serine protease EatA on mucins. Some examples used mucins removed from the abdominal cavity of clinical patients without purification.
During the experiment, 0.10 g of gel-like mucins was accurately weighed for each single reaction, 20 μg of aminoprotease EatA was added, the reaction was performed in 500 uL of solution system, and the weighing method for the remaining gel-like mucins was the same as that in Example 2. The control group was performed under the same conditions except that the serine protease EatA was not added, and three reactions were set in each group as statistical replicates. Due to the hydrating nature of gel-like mucins, the gel-like mucins absorbed water and swelled when in solution, resulting in a certain weight increase in the control group when finally weighed.
Among them, the experiment on temperature gradient was conducted in normal saline with pH=7.1, and results were shown in FIG. 4; in the pH experiment, the reaction system used was a solution system with different pH values based on 0.9% normal saline, and the reaction temperature was 37° C., and results are shown in FIG. 5; the reaction time for both the above-mentioned experiments was 6 h.
In the experiment regarding the degradation time, based on the temperature curve and pH curve, the experiment was carried out in PBS buffer with pH=7.2-7.4 at 37° C.

The test system of series [13] is mucus (sputum), mucous colon cancer and the like of patients with chronic obstructive pulmonary pneumonia. Nature of the series: Applicant's related studies: degradation of COPD sputum and mucous colon cancer mucus. It counts as biochemical, human. The conditions noted are these: relevant study results of the applicant.
Series [14] is described as follows: Example 5: tolerability in mice after intraperitoneal injection. The series is classed as in vivo, C57 male mice. The conditions noted are these: mice injected with enzyme.

In the case of bromelain [reference compound], in series [1], the “degradation of patient-derived miscellaneous proteins (SDS-PAGE)” value is “the miscellaneous protein showed degradation”. The “amount of gel-like mucins remaining” value in [2] is given as “more than 0.30 g”. In series [3] (increasing enzyme concentration), the “mass loss of gel-like mucins (in words)” value is reported as “negative”.

As to elastase, in series [4], the “mucin degradation after mucus formation” value is “inefficient”.

As to pancreatin, in series [4], the “mucin degradation after mucus formation” value is listed as “inefficient”.

As to “serine protease EatA (serine protease EatA-EatAp with only the passenger domain) (enzyme)”, the viscosity of mucus (rheometer) in [5] was 670 mPa s; in series [6], 7 mPa s. In addition, the mass loss of gel-like mucins in [7] is 90.3%.

In the case of “serine protease EatA: autotransporter serine protease from enterotoxigenic Escherichia coli H10407; passenger domain SEQ ID NO 2, full length SEQ ID NO 1”, the “degradation of gel-like mucins (observation)” value in series [8] was “obvious degradation of gel-like mucins”. The “degradation of patient-derived miscellaneous proteins (SDS-PAGE)” value in [1] is given as “did not degrade these proteins”. Also, the “degradation efficiency of gel-like mucins in vivo” value in series [2] (based on initial 0.30 g) stood at 78%. Moreover, the “mass loss of gel-like mucins” value in series [3] (40 μg enzyme, based on initial mass 0.1 g) is 90.33%; in series [12] (20 μg enzyme, 0.10 g mucins, PBS pH=7.2-7.4, 37° C., 10.5 h), 80%. Besides, the “viscosity of mucus after incubation” value in series [9] is on record as “about 670 mPa s”; in series [10] (0.50 mL mucus, 750 uL, 37° C., 600 rpm, control about 1200 mPa s) it was “about 7 mPa s”. In series [10] (after standing), the “appearance of mucus sample solution after incubation” value was “becomes uniform”. The “degradation of common human glycoproteins and non-human proteins” value in [11] was “did not degrade”. Besides, the “pH of maximum degradation efficiency” value in series [12] (20 μg enzyme, 0.10 g mucins, 0.9% normal saline based, 37° C., 6 h) is recorded as about 8. The “temperature of maximum enzyme activity” value in [12] (20 μg enzyme, 0.10 g mucins, normal saline pH=7.1, 6 h) is 34-37 °C. The “optimal working environment: pH” value in [12] (degradation of gel-like mucins) is 7-8. Further, the “optimal working environment: reaction temperature” value in series [12] (degradation of gel-like mucins) was 34-37 °C. The “degradation effect on mucus” value in series [13] is on record as “certain degradation effect”. The “survival from the beginning of the experiment” value in series [14] is given as “more than 100 days”. Further, in series [14] (compared with non-injected group), the “adverse reactions, behavior and body weight” value is recorded as “without adverse reactions”.
